Test results reported in patent US7282507B2, “Indole derivatives as selective androgen receptor modulators (SARMS)” (Janssen Pharmaceutica N.V., priority 2004, dated 2007).
Where two headings read alike, the source gives them in different places.

Columns and labels:
[1] = test system: testosterone-enhanced ventral prostate and seminal vesicle weights; test: Ventral Prostate and Seminal Vesicle Weight in vivo Assay; set-up: species or system rat; conditions: immature castrated male Sprague Dawley rats, once daily for five days, usually orally 40 mg/kg, with testosterone propionate 2 mg/kg s.c. Also: key: 'active' if the non weight adjusted prostate weight was ≦40 mg or the % Inhibition prostate weight, body weight adjusted was ≧40% @ 2 mg/day dosage; ID50's, if determined, of ≦15 mg/day also indicated an 'active' compound; listed herein as 'inactive' as they did not meet the specified criteria defined above.
Procedure, shortened: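 Wet weights of ventral prostate and seminal vesicles were taken on day six. Castrated immature male Sprague Dawley rats had received five daily doses of testosterone propionate (2 mg/kg s.c.) together with test compound, typically 40 mg/kg orally. Activity was scored from absolute prostate weight or body-weight-adjusted % inhibition.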

[2] = biological target: T1, androgen receptor (AdEasy+rAR, COS-7 cells) (Rattus norvegicus, UniProt P15207); test: COS-7 Whole-Cell Androgen Receptor Binding Assay, Adenovirus Transduction
T1 construct: expressed in transfected cells; host or cells: COS-7 cells transduced with adenovirus AdEasy+rAR
T1 sequence (P15207 1-902): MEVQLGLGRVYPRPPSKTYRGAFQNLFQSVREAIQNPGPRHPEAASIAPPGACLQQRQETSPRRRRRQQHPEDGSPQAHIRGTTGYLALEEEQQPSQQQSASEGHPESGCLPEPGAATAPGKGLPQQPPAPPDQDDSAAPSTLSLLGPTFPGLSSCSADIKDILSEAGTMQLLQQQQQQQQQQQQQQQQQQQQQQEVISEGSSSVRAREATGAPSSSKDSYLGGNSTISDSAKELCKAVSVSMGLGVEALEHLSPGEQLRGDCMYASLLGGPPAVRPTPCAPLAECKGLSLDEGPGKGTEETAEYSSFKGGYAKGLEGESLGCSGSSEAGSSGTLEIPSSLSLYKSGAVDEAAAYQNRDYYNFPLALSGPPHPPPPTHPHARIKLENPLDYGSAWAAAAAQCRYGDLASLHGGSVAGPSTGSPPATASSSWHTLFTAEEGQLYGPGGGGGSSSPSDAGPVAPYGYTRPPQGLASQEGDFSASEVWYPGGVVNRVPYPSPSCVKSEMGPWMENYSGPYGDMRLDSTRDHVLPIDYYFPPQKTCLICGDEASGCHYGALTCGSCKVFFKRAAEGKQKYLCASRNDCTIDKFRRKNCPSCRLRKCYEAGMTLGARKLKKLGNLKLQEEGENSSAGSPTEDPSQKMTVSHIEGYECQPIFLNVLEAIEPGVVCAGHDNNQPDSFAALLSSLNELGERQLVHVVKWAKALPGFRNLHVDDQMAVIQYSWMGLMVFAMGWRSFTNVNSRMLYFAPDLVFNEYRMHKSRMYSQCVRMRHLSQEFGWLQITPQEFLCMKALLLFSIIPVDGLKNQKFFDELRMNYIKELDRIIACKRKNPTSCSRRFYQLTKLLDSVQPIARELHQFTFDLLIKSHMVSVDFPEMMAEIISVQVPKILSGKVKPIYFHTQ
Description: COS-7 cells were plated in 96-well plates at 20,000 cells per well, in a solution of DMEM/F12 (GIBCO) containing 10% (v/v) charcoal-treated fetal bovine serum (Hyclone) and lacking phenol red. The cells were then incubated overnight at 37° C. in 5% (v/v) humidified CO2.
Test compound solutions were prepared by diluting the test compound in 100% (v/v) DMSO, if necessary.
Next, 1 mL of DMEM/F12 lacking phenol red was pipetted into each of the wells of a 2-mL 96-well assay block. […] The wells were carefully mixed by pipette.
In a 15 mL or 50 mL sterile centrifuge tube, a dilution in DMEM/F12 of the adenovirus AdEasy+rAR at a moi of 1:50 per well was prepared.
The medium was removed from the 96-well plates by inversion and the plates dried very briefly, inverted, on a sterile towel. As soon as possible after medium removal, 40 μL of the diluted test compound was added to each well, in duplicate. […] The plates were then incubated for 48 hours at 37° C. in 5% (v/v) humidified CO2.
The medium was removed from the above incubated plates by inversion and dried. Each well was then washed with 0.35 mL of 1× PBS. The PBS was then removed from the plates by inversion and the plates dried.
To each well was then added 50 μL of 0.5% (v/v) Triton X-100 (Sigma) in 1× PBS and the plates placed on a rotary shaker for 5 min. The contents of each well were then transferred to an OptiPlate-96 (Packard) scintillation plate. To each well was then added 0.2 mL of Microscint-20 (Packard) and the wells counted on a TopCount (Packard).
Percent inhibition was determined by testing dilutions of the test compound (usually duplicates of 10 μM) in the binding assay. Counts per well were measured and percents of inhibition determined. […] Counts per well were measured and IC50s determined by linear regression.

[3] = biological target: T2, androgen receptor (AdEasy+rAR, L929 cells) (Rattus norvegicus, UniProt P15207); test: L929 Androgen Receptor Functional Assay, Adenovirus Transduction; type: cell-based; conditions: for inhibition at 3 µM: L929, antagonist testing with R1881, 3000 nM; for % Activity, L929 androgen receptor functional assay: agonist testing, 3000 nM
T2 construct: expressed in transfected cells; host or cells: L929 cells transduced with adenovirus AdEasy+rAR
T2 sequence (P15207 1-902): T1 sequence (P15207 1-902)
Description: L929 cells were plated in 96-well plates at 20,000 cells per well, in DMEM/F12 (GIBCO) containing 10% (v/v) charcoal-treated fetal bovine serum (Hyclone) and lacking phenol red. The plates were then incubated overnight at 37° C. in 5% (v/v) humidified CO2.
Test compound dilutions were prepared in 100% (v/v) DMSO, if necessary. Each dilution was made to 1250× the final desired assay concentration.
First, 2 mL of DMEM/F12 lacking phenol red was pipetted into the wells of a 2-mL 96-well assay block. Next, 4 μL of the 1250× test compound dilutions were pipetted into each well of the assay block. The mixtures within the well were then carefully mixed by pipette.
In a 15 mL or 50 mL sterile centrifuge tube, a 2.5 nM (2.5×) dilution of R1881 (methyl-trienolone) in DMEM/F12 lacking phenol red was prepared.
In a second 15 mL or 50 mL centrifuge tube a solution containing an equal volume of DMEM to the first and an equal volume of 100% (v/v) DMSO to the volume of R1881 used in the first tube was prepared.
In a 15 mL or 50 mL sterile centrifuge tube, a dilution in DMEM/F12 of the adenovirus AdEasy+rAR at an moi of 1:500 per well was prepared.
The medium was removed from the 96-well plates by inversion and dried, inverted, very briefly. As soon as possible after medium removal, 40 μL of the diluted unlabeled test compound was added to each well, in duplicate. To each well designated for antagonist testing was added 40 μL of the 2.5 nM R1881 dilution to the wells for antagonist testing. To each well designated for agonist testing was added 40 μL of the DMSO dilution. Then 20 μL of the diluted adenovirus were added to all wells. The plates were incubated for 48 hours at 37° C. in 5% (v/v) humidified CO2.
To each well was added 100 μL of Steady-Glo luciferase assay substrate (Promega) and the plates were placed on a rotary shaker for 1 min. The plates were then incubated at room temperature in the dark for one hour. The contents of each well were then transferred to a white microtiter plate (Packard) and read on a Luminoskan Ascent (Thermo Lab Systems).
L929 AR percent activity was determined by testing dilutions of the test compound using a concentration of 3000 nM unless otherwise noted. L929 percent inhibition was determined by testing dilutions of the test compound using a concentration of 3000 nM. […] Luciferase activity per well were measured and EC50s and IC50s determined by linear regression.

[4] = biological target: T3, androgen receptor (rat ventral prostate cytosol) (Rattus norvegicus, UniProt P15207); test: Androgen Receptor Binding Using Rat Ventral Prostate Cytosol; conditions: Concentration 3000 nM
T3 construct: from tissue; host or cells: ventral prostate cytosol of castrated male Sprague Dawley or Wistar rats
T3 sequence (P15207 1-902): T1 sequence (P15207 1-902)
Description: The assay was run on a 96 well plate with each well filled with a total reaction volume 150 μL, of a solution containing 5 pmol androgen receptor LBD (Panvera) or 30 μL of freshly prepared rat cytosol, 0.5 nM [^3H] […] (TED buffer contains 10 mM Tris.HCl pH 7.4, 1 mM sodium molybdate, 1.5 mM EDTA, 1 mM DTT and 10% (v/v) glycerol.)
On day one, the solution containing receptor, tracer and TED buffer was distributed into a 96 well plate. Diluted test compound or control vehicle was then added to individual wells and the plate incubated at 4° C. overnight.
On day two, to each well was then added 20 μL human γ-globulin (ICN 823102), prepared at 25 mg/ml in TE pH 8.0, and 55 μL 40% polyethylene glycol 8000 (J T Baker U222-08), prepared in TE pH 8.0. The plate was incubated at 4° C. for 60 minutes. During incubation, the harvester was rinsed with 10% PEG 8000, prepared in TE pH 8.0, and a GF/C Unifilter-96 was pre-wet with 10% PEG. The binding reaction was filtered, the retentate was washed three times with 10% PEG and dried under vacuum for a couple of minutes, then dried at 50° C. for 5 min and the plate was bottom sealed. Next, 25 μL of Microscint-20 (Packard) was added to the filter wells and the plate was top sealed. The plate wells were then counted on a TopCount (Packard).
Rat Prostate Cytosol Preparation:
Male Sprague Dawley or Wistar rats (Charles River, 200-300 g) were used for each preparation. The day before preparing the cytosol, the rats were castrated using standard surgical procedures.
The rats were euthanized by carbon dioxide asphyxiation. The rat prostates were quickly removed and placed on ice in pre-chilled, pre-weighed 50 mL plastic tubes. No more than five prostates were placed into one tube. The tubes were then weighed and the prostate tissue wet weights calculated.
To the chilled prostate tissue was then added […] of chilled homogenization buffer. The homogenization buffer was freshly prepared by mixing 10 mM Tris.HCl, pH 7.4, 1 mM sodium molybdate, 1.5 mM EDTA, 1 mM dithiothreitol, 10% (v/v) glycerol and 1% protease inhibitor cocktail (Sigma P 8340).
The prostate tissue was homogenized in a cold room using a pre-chilled Polytron PT3000 homogenizer (Brinkmann). Homogenization was performed at a speed setting of 20, three times for 10 sec bursts. The tubes containing the prostate tissue was kept on ice while homogenizing. The homogenate was allowed to rest on ice for 20 sec between bursts.
The homogenate was then placed into pre-chilled 3 mL polycarbonate ultracentrifuge tubes and centrifuged in the TLA-100 rotor of a TL-100 ultracentrifuge for 12 min at 100,000 rpm at 4° C. The resulting supernatant was stored in 1 mL aliquots at −80° C. until needed.
Binding to the androgen receptor was determined according to the protocol described in Example 86 using the above prepared rat cytosol.
% Inhibition was determined by testing dilutions of the test compound (usually duplicates of 10 μM) in the binding assay. Counts per well were measured and percents of inhibition determined. […] Counts per well were measured and IC50s determined by linear regression.

[5] = read-out: IC50 (nM), COS Binding

CCSCC(C)(O)Cc1cc2cc([N+](=O)[O-])c(C(F)(F)F)cc2[nH]1 (stereo not shown) [Compound 10]
active / inactive: inhibition of testosterone-enhanced prostate weight [1]: inactive | IC50 [2, 5]: > 3000 nM

CCS(=O)(=O)CC(C)(O)c1[nH]c2cc(C(F)(F)F)c(C#N)cc2c1C (racemic) [Compound 246]
inhibition at 3 µM ([2]; concentration of 3000 nM): 70% | IC50 [2, 5]: 616 nM

CCSCC(C)(O)c1cc2ccc(C(F)(F)F)cc2n1S(C)(=O)=O (stereo not shown) [Compound 214]
IC50 [2, 5]: > 3000 nM

COc1ccc(S(=O)(=O)CC(C)(O)c2cc3cc(Cl)c(C(F)(F)F)cc3n2S(C)(=O)=O)cc1 (stereo not shown) [Compound 128]
inhibition at 3 µM [3]: 44% | % Activity, L929 androgen receptor functional assay [3]: −4% | IC50 ([2]; IC50 (nM), COS Binding): > 1500 nM | inhibition at 3 µM ([2]; concentration of 3000 nM): 21%

CN(C)c1ccc(S(=O)(=O)CC(C)(O)c2cc3cc(Cl)c(C(F)(F)F)cc3[nH]2)cc1 (racemic) [Compound 126]
% Inhibition, Androgen Receptor Binding (Rat Cytosol) [4]: −30% | active / inactive: inhibition of testosterone-enhanced prostate weight [1]: inactive | % Activity, L929 androgen receptor functional assay [3]: −5%

O=[N+]([O-])c1cc2cc(C3(O)CCSCC3)[nH]c2cc1C(F)(F)F [Compound 17]
active / inactive: inhibition of testosterone-enhanced prostate weight [1]: inactive | IC50 [2, 5]: > 1500 nM

CC(O)(CSc1ccc(C(=O)O)cc1)c1cc2cc(Cl)c(C(F)(F)F)cc2n1S(C)(=O)=O (stereo not shown) [Compound 132]
inhibition at 3 µM [3]: 48% | % Activity, L929 androgen receptor functional assay [3]: −5% | IC50 ([2]; IC50 (nM), COS Binding): > 3000 nM | inhibition at 3 µM ([2]; concentration of 3000 nM): 8.7%

CC(O)(CS(=O)(=O)Cc1ccccc1)c1cc2cc([N+](=O)[O-])c(C(F)(F)F)cc2[nH]1 (racemic) [Compound 162]
% Inhibition, Androgen Receptor Binding (Rat Cytosol) [4]: 0.69% | active / inactive: inhibition of testosterone-enhanced prostate weight [1]: inactive | % Activity, L929 androgen receptor functional assay [3]: 2%

CC(O)(Sc1ccc(N)cc1)c1cc2cc(Cl)c(C(F)(F)F)cc2[nH]1 (racemic) [Compound 265]
% Inhibition, Androgen Receptor Binding (Rat Cytosol) [4]: 93.5% | % Activity, L929 androgen receptor functional assay [3]: −1%

CC(C)SC(C)(CO)c1cc2cc([N+](=O)[O-])c(C(F)(F)F)cc2[nH]1 (racemic) [Compound 268]
% Inhibition, Androgen Receptor Binding (Rat Cytosol) [4]: −3.3% | active / inactive: inhibition of testosterone-enhanced prostate weight [1]: inactive | % Activity, L929 androgen receptor functional assay [3]: 9%

CC(O)(Sc1ccc(N)cc1)c1cc2cc([N+](=O)[O-])c(C(F)(F)F)cc2[nH]1 (racemic) [Compound 266]
% Inhibition, Androgen Receptor Binding (Rat Cytosol) [4]: 12.4% | active / inactive: inhibition of testosterone-enhanced prostate weight [1]: inactive | % Activity, L929 androgen receptor functional assay [3]: −4%

CCSCC(C)(O)c1cc2cc(Cl)ccc2n1S(C)(=O)=O (racemic) [Compound 154]
% Activity, L929 androgen receptor functional assay [3]: 2% | % Inhibition, L929 androgen receptor functional assay ([3]; antagonist testing with R1881, 3000 nM): 7% | % Inhibition, COS Binding ([2]; concentration of 3000 nM): 50%

CCSCC(C)(O)c1cc2cc(C#N)c(Cl)cc2[nH]1 (stereo not shown) [Compound 225]
inhibition at 3 µM [3]: 97% | % Activity, L929 androgen receptor functional assay [3]: 1% | IC50 ([3]; antagonist testing with R1881): 229 nM | inhibition at 3 µM ([2]; concentration of 3000 nM): 82% | IC50 [2, 5]: 142 nM
